Reference: US9873883B2, “Glyphosate resistant plants and associated methods” (Dow AgroSciences LLC, priority 2012, dated 2018)

Experiments:
[1] = biological target: Glycine max (soybean) EPSP synthase DGT-1 v5, native, SEQ ID NO: 59 (Glycine max, UniProt I1J7U9); test: In vitro kinetic assay (inorganic phosphate production, malachite green); format: biochemical
Source text: (§1) FIG. 1 depicts a partial sequence alignment of DGT-14 (SEQ ID NO:46), DGT-11 (SEQ ID NO:47), DGT-12 (SEQ ID NO:49), DGT-18 (SEQ ID NO:50), DGT-29 (SEQ ID NO:53), and DGT-30 (SEQ ID NO:52) to other EPSP synthase enzymes, such as; grg-23 (SEQ ID NO:54; derived from U.S. Pat. No. 7,834,249), CP4 (SEQ ID NO:48; GENBANK ACC NO: AEM75108.1) from Agrobacterium tumefaciens, DGT-3 (SEQ ID NO:57; GENBANK ACC NO: P17688) from Brassica napus, DGT-1 (SEQ ID NO:56) from Glycine max, DGT-7 (SEQ ID NO:55; GENBANK ACC NO: EU977181) from Triticum aestivum, and aroA (SEQ ID NO:51; Padgette et al., (1991); Eschenburg et al., (2002); Priestman et al., (2005); Haghani et al., (2008) from Escherichia coli. All six DGT enzymes (DGT-14, DGT-11, DGT-12, DGT-18, DGT-30, and DGT-29) share a conserved alanine at the aroA EPSP synthase enzyme amino acid position 96. The location of this amino acid is indicated by an asterisk, and the amino acid residue is underlined.
(§2) The location of the amino acid residue which was mutated from glycine to alanine is indicated by the first asterisk. The location of the amino acid residue which was mutated from threonine to isoleucine is indicated by the second asterisk. The location of the third amino acid residue which was mutated from proline to serine is indicated by the third asterisk.
(§3) The following Class I enzymes: DGT-1 from Glycine max, DGT-3 from Brassica napus (GENBANK ACC NO: P17688), and DGT-7 from Triticum aestivum (GENBANK ACC NO: EU977181) were used as a comparison. The Class I EPSP synthase enzymes and mutant variants thereof were synthesized and evaluated. A mutation introduced into the plant EPSP synthase enzymes consisted of the Glycine to Alanine mutation made within the EPSP synthase enzyme at a similar location as that of the G96A mutation from the E. coli version of the enzyme. In addition, Threonine to Isoleucine and Proline to Serine mutations were introduced within these Class I EPSP synthase enzymes at analogous positions as that of amino acid 97 (T to I) and amino acid 101 (P to S) in the EPSP synthase of E. coli as described in Funke et al., (2009).
(§4) Additional constructs containing the dgt-1, dgt-3 and dgt-7 were synthesized. These constructs were used for in vitro testing of the dgt-1 v5, dgt-1 v6, dgt-1 v7, dgt-1 v8, dgt-3 v6, dgt-3 v7, dgt-3 v8, dgt-7 v5, dgt-7 v6, dgt-7 v7, and dgt-7 v8 gene sequences were outsourced to GeneArt for synthesis and cloning. The synthesized genes were cloned into the pET28 expression vector. […]

[2] = biological target: Triticum aestivum (wheat) EPSP synthase DGT-7 v5, native (GENBANK EU977181), SEQ ID NO: 60 (Triticum aestivum, UniProt B5M6A1); test: as above; format: biochemical
Triticum aestivum (wheat) EPSP synthase DGT-7 v5, native (GENBANK EU977181), SEQ ID NO: 60, sequence (B5M6A1 entry or part of it): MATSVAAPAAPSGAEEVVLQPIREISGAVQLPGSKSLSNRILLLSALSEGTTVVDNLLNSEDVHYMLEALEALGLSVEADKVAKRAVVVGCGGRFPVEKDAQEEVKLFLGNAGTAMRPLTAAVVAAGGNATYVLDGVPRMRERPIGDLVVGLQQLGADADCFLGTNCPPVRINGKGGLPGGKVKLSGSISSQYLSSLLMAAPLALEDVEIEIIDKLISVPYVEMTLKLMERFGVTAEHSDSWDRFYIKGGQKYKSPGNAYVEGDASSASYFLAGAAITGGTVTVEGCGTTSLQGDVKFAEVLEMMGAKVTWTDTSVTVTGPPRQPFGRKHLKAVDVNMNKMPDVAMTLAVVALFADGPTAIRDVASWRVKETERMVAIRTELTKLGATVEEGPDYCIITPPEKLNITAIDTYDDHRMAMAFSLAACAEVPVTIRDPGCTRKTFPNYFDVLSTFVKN
Source text: as §1, §2, §3, §4

[3] = biological target: bacterial EPSP synthase DGT-18 (GENBANK NP_928909.1) variant DGT-18 v6 (G→A at residue 96), SEQ ID NO:9 (Photorhabdus laumondii, UniProt Q7N6D5, G96A); test: as above; details: IC50 (glyphosate)
bacterial EPSP synthase DGT-18 (GENBANK NP_928909.1) variant DGT-18 v6 (G→A at residue 96), SEQ ID NO:9, sequence (Q7N6D5 whole entry G96A): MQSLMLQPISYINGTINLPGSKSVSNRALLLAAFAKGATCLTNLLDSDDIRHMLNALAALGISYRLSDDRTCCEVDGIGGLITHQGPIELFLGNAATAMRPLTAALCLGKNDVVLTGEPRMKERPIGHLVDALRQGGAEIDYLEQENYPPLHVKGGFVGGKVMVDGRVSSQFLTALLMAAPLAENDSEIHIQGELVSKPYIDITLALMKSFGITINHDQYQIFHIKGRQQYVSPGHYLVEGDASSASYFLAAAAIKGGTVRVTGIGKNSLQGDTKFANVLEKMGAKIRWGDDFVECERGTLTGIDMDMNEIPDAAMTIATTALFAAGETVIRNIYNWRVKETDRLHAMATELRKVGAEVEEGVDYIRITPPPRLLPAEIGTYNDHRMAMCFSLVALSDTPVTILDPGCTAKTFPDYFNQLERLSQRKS
Source text: The novel DGT-14, DGT-12, DGT-18, DGT-29 and DGT-30 enzymes were obtained and the glycine to alanine mutation was introduced into the EPSP synthase enzymes at a location analogous to the G96A location described for the E. coli version of the EPSP synthase enzyme. The DGT-14 protein sequence was modified by introducing an alanine to replace the endogenous glycine of GENBANK ACC NO: ZP_01452683 at amino acid residue 101, thereby resulting in SEQ ID NO:1. The DGT-12 protein sequence was modified by introducing an alanine to replace the endogenous glycine of GENBANK ACC NO: ZP_01622155.1 at amino acid residue 111, thereby resulting in SEQ ID NO:7. The DGT-18 protein sequence was modified by introducing an alanine to replace the endogenous glycine of GENBANK ACC NO: NP_928909.1 at amino acid residue 96, thereby resulting in SEQ ID NO:9. The DGT-29 protein sequence was modified by introducing an alanine to replace the endogenous glycine of GENBANK ACC NO: YP_322772.1 at amino acid residue 96, thereby resulting in SEQ ID NO:11. The DGT-30 protein sequence was modified by introducing an alanine to replace the endogenous glycine of GENBANK ACC NO: ZP_02156189.1 at amino acid residue 96, thereby resulting in SEQ ID NO:13.
The synthesized genes were cloned into the pET28 expression vector.
Recombinant DGT proteins were overexpressed in Rosetta2™ (DE3) cells (Novagen, Madison, Wis.) from the constructs described above. A single colony was used to inoculate 50 mL starter cultures of LB containing chloramphenicol (25 μg/mL) and kanamycin (50 μg/mL) which were cultivated overnight at 37° C. The overnight cultures were used to inoculate 1 L of LB containing chloramphenicol (25 μg/mL) and kanamycin (50 μg/mL). The cultures were grown at 37° C. to an O.D.600=0.6 then placed in an ice water bath for 10 minutes. Expression of the target proteins was achieved by addition of IPTG to a final concentration of 500 μM. Induction was allowed to proceed overnight at 20° C. followed by harvesting via centrifugation at 8,000 rpm for 20 minutes. The cell pellets were stored at −80° C. until required for purification. All purification steps were carried out at 4° C.

[4] = test system: Non-transformed control Arabidopsis (cv. Columbia); test: Postemergence glyphosate tolerance, visual injury; format: in vivo, Arabidopsis thaliana; details: 840 g ae/ha, 2 weeks after application

Glycine max (soybean) EPSP synthase DGT-1 v5, native, SEQ ID NO: 59, sequence (I1J7U9 entry or part of it): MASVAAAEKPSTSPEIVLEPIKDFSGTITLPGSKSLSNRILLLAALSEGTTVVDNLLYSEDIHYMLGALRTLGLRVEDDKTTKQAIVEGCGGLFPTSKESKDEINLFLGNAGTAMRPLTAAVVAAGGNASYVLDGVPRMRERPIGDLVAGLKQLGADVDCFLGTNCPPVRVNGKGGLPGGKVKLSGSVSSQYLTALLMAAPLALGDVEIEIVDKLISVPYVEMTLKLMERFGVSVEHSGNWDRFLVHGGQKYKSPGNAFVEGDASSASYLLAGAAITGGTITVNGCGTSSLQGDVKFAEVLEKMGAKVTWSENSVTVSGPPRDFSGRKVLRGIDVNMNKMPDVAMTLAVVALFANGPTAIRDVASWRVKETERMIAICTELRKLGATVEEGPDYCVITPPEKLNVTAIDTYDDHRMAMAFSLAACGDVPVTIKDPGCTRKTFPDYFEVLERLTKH

Work on `C=C(OP(=O)(O)O)C(=O)O` [PEP, phosphoenolpyruvate] yielded a kcat/Km ([1]; PEP, pH 7.5, 1 mM S3P) of 74100 M⁻¹ s⁻¹ and a kcat/Km ([2]; PEP, pH 7.5, 1 mM S3P) of 215000 M⁻¹ s⁻¹.
`O=C(O)CNCP(=O)(O)O` [glyphosate, N-(phosphonomethyl)glycine] gave an IC50 [1] of about 0.02 mM, an IC50 [2] of about 0.02 mM and an IC50 ([3]; at 60 μM PEP) of 9.24 mM. The IC50 ([3]; at 1 mM PEP) was 33.2 mM, the “Visual % injury (Ave)” value ([4]; T2 study) was 100.0% and the “Visual % injury (Ave)” value ([4]; T3 study) was 100.0%.
